According to PMC7531004, “Discovery of gramicidin A analogues with altered activities by multidimensional screening of a one-bead-one-compound library” (Nature Communications, 2020):
Where a SMILES comes first, the peptide text is derived from it. [ ]: non-standard residue; d: D form. The star is where a group is joined. NHCH2CH2OH = OCCN*; For = O=C*

Assays:
[1] = test system: Streptococcus pyogenes SSI-9; assay: Antibacterial activity assay of bead-derived peptides (three concentrations); type: cell-based; set-up: key: +++: inhibition by the 640-fold diluted peptide solution; ++: inhibition by the 160-fold diluted solution; +: inhibition by the 40-fold diluted solution; -: no inhibition; details: S. pyogenes, bead-derived peptide solution, three concentrations
Procedure, shortened: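 Three stock dilutions per peptide (none, 4-fold, 16-fold in DMSO) are screened in 96-well format. The medium is blood-supplemented cation-adjusted MHB, inoculated with 2 × 10^5 CFU S. pyogenes SSI-9. Growth is read as cell precipitation at 18 h, 37 °C.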

[2] = H+/Na+ transport assay of bead-derived peptides (one-point); type: biochemical; set-up: key: relative activity; mean of two control wells = 1.00; details: bead-derived peptide solution, EYPC/EYPG LUVs;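 note: relative to parent gramicidin A activity set to 1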
Procedure, shortened: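 Miniaturized 96-well format. LUVs with entrapped pyranine (1.0 mM) were exposed to peptide for 30 min at RT. Intensities were expressed relative to full lysis by Triton X-100 and no treatment, with control-well mean = 1.00.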

[3] = cell viability/%
Procedure, shortened: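 First, library peptide stocks are diluted 250-fold in RPMI1640 with 10% heat-inactivated FBS. Next, they are mixed with P388 cells to give 1 × 10^4 cells/mL and incubated 92 h at 37 °C, 5% CO2. Finally, viability (%) is scored by WST-1 absorbance at 415 nm.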

| SMILES | antibacterial activity [1] | H+/Na+ transport activity normalized against the value of 1 (1.00) [2] | viability [3] |
| --- | --- | --- | --- |
| CC(C)C[C@@H](NC(=O)[C@H](Cc1c[nH]c2ccccc12)NC(=O)[C@@H](CC(C)C)NC(=O)[C@H](Cc1c[nH]c2ccccc12)NC(=O)[C@H](NC(=O)[C@H](Cc1c[nH]c2ccccc12)NC(=O)[C@H](NC(=O)[C@@H](NC(=O)[C@H](NC(=O)[C@H](C)NC(=O)[C@H](NC(=O)[C@H](C)NC(=O)CNC(=O)[C@@H](NC=O)C(C)C)C(C)C)C(C)C)C(C)C)C(C)C)[C@H](C)O)C(=O)N[C@@H](Cc1c[nH]c2ccccc12)C(=O)NCCO [compound 10042] (For-VGA[dV]A[dV]V[dV]W[dT]W[dL]W[dL]W-NHCH2CH2OH) | - | 1.06 | 100% |
| CNC(=O)C[C@@H](NC(=O)[C@H](Cc1c[nH]c2ccccc12)NC(=O)[C@H](NC(=O)[C@H](Cc1c[nH]c2ccccc12)NC(=O)[C@H](NC(=O)[C@H](Cc1c[nH]c2ccccc12)NC(=O)[C@@H](CC(C)C)NC(=O)[C@@H](NC(=O)[C@@H](CC(C)C)NC(=O)[C@H](C)NC(=O)[C@H](NC(=O)[C@H](C)NC(=O)CNC(=O)[C@@H](NC=O)C(C)C)C(C)C)C(C)C)C(C)C)C(C)C)C(=O)N[C@@H](Cc1c[nH]c2ccccc12)C(=O)NCCO [compound 3866] (For-VGA[dV]A[dL]V[dL]W[dV]W[dV]W[dD](NHMe)W-NHCH2CH2OH) | - | 1.31 | 100% |
| CC(C)C[C@@H](NC(=O)[C@H](C)NC(=O)CNC(=O)[C@@H](NC=O)C(C)C)C(=O)N[C@@H](C)C(=O)N[C@H](CC(C)C)C(=O)N[C@H](C(=O)N[C@H](CC(C)C)C(=O)N[C@@H](Cc1c[nH]c2ccccc12)C(=O)N[C@H](CC(C)C)C(=O)N[C@@H](Cc1c[nH]c2ccccc12)C(=O)N[C@@H](C(=O)N[C@@H](Cc1c[nH]c2ccccc12)C(=O)N[C@@H](C(=O)N[C@@H](Cc1c[nH]c2ccccc12)C(=O)NCCO)[C@H](C)O)[C@H](C)O)C(C)C [compound 7156] (For-VGA[dL]A[dL]V[dL]W[dL]W[dT]W[dT]W-NHCH2CH2OH) | - | 1.08 | 100% |
| CC(C)C[C@@H](NC(=O)[C@H](C)NC(=O)[C@H](NC(=O)[C@H](C)NC(=O)CNC(=O)[C@@H](NC=O)C(C)C)C(C)C)C(=O)N[C@H](C(=O)N[C@H](CC(C)C)C(=O)N[C@@H](Cc1c[nH]c2ccccc12)C(=O)N[C@@H](C(=O)N[C@@H](Cc1c[nH]c2ccccc12)C(=O)N[C@@H](C(=O)N[C@@H](Cc1c[nH]c2ccccc12)C(=O)N[C@H](CC(C)C)C(=O)N[C@@H](Cc1c[nH]c2ccccc12)C(=O)NCCO)C(C)C)C(C)C)C(C)C [compound 11126] (For-VGA[dV]A[dL]V[dL]W[dV]W[dV]W[dL]W-NHCH2CH2OH) | - | 1.07 | 8.7% |
| CC(C)C[C@@H](NC(=O)[C@H](C)NC(=O)CNC(=O)[C@@H](NC=O)C(C)C)C(=O)N[C@@H](C)C(=O)N[C@H](CC(C)C)C(=O)N[C@H](C(=O)N[C@@H](C(=O)N[C@@H](Cc1c[nH]c2ccccc12)C(=O)N[C@@H](C(=O)N[C@@H](Cc1c[nH]c2ccccc12)C(=O)N[C@@H](C(=O)N[C@@H](Cc1c[nH]c2ccccc12)C(=O)N[C@H](CC(C)C)C(=O)N[C@@H](Cc1c[nH]c2ccccc12)C(=O)NCCO)C(C)C)C(C)C)C(C)C)C(C)C [compound 905] (For-VGA[dL]A[dL]V[dV]W[dV]W[dV]W[dL]W-NHCH2CH2OH) | + | 1.19 | 90.6% |
| CC(C)C[C@@H](NC(=O)[C@H](Cc1c[nH]c2ccccc12)NC(=O)[C@@H](CC(C)C)NC(=O)[C@H](Cc1c[nH]c2ccccc12)NC(=O)[C@H](NC(=O)[C@H](Cc1c[nH]c2ccccc12)NC(=O)[C@H](NC(=O)[C@@H](NC(=O)[C@H](NC(=O)[C@H](C)NC(=O)[C@H](NC(=O)[C@H](C)NC(=O)CNC(=O)[C@@H](NC=O)C(C)C)[C@H](C)O)C(C)C)C(C)C)C(C)C)[C@H](C)O)C(=O)N[C@@H](Cc1c[nH]c2ccccc12)C(=O)NCCO [compound 3226] (For-VGA[dT]A[dV]V[dV]W[dT]W[dL]W[dL]W-NHCH2CH2OH) | - | 1.06 | 87.6% |
| CNC(=O)C[C@@H](NC(=O)[C@H](C)NC(=O)CNC(=O)[C@@H](NC=O)C(C)C)C(=O)N[C@@H](C)C(=O)N[C@@H](C(=O)N[C@H](C(=O)N[C@@H](C(=O)N[C@@H](Cc1c[nH]c2ccccc12)C(=O)N[C@H](CC(C)C)C(=O)N[C@@H](Cc1c[nH]c2ccccc12)C(=O)N[C@H](CC(C)C)C(=O)N[C@@H](Cc1c[nH]c2ccccc12)C(=O)N[C@H](CC(C)C)C(=O)N[C@@H](Cc1c[nH]c2ccccc12)C(=O)NCCO)C(C)C)C(C)C)C(C)C [compound 10673] (For-VGA[dD](NHMe)A[dV]V[dV]W[dL]W[dL]W[dL]W-NHCH2CH2OH) | - | 1.01 | 97.7% |
| CC(C)C[C@@H](NC(=O)[C@H](C)NC(=O)CNC(=O)[C@@H](NC=O)C(C)C)C(=O)N[C@@H](C)C(=O)N[C@H](CC(C)C)C(=O)N[C@H](C(=O)N[C@@H](C(=O)N[C@@H](Cc1c[nH]c2ccccc12)C(=O)N[C@H](CC(C)C)C(=O)N[C@@H](Cc1c[nH]c2ccccc12)C(=O)N[C@@H](C(=O)N[C@@H](Cc1c[nH]c2ccccc12)C(=O)N[C@@H](C(=O)N[C@@H](Cc1c[nH]c2ccccc12)C(=O)NCCO)C(C)C)C(C)C)C(C)C)C(C)C [compound 2557] (For-VGA[dL]A[dL]V[dV]W[dL]W[dV]W[dV]W-NHCH2CH2OH) | ++ | 1.21 | 31% |
| CC(C)C[C@@H](NC(=O)[C@H](C)NC(=O)[C@H](NC(=O)[C@H](C)NC(=O)CNC(=O)[C@@H](NC=O)C(C)C)[C@H](C)O)C(=O)N[C@H](C(=O)N[C@H](CC(C)C)C(=O)N[C@@H](Cc1c[nH]c2ccccc12)C(=O)N[C@@H](C(=O)N[C@@H](Cc1c[nH]c2ccccc12)C(=O)N[C@@H](C(=O)N[C@@H](Cc1c[nH]c2ccccc12)C(=O)N[C@@H](C(=O)N[C@@H](Cc1c[nH]c2ccccc12)C(=O)NCCO)C(C)C)C(C)C)C(C)C)C(C)C [compound 1842] (For-VGA[dT]A[dL]V[dL]W[dV]W[dV]W[dV]W-NHCH2CH2OH) | - | 1.26 | 100% |
| CC(C)C[C@@H](NC(=O)[C@H](Cc1c[nH]c2ccccc12)NC(=O)[C@H](NC(=O)[C@H](Cc1c[nH]c2ccccc12)NC(=O)[C@H](NC(=O)[C@H](Cc1c[nH]c2ccccc12)NC(=O)[C@H](NC(=O)[C@@H](NC(=O)[C@H](NC(=O)[C@H](C)NC(=O)[C@H](NC(=O)[C@H](C)NC(=O)CNC(=O)[C@@H](NC=O)C(C)C)C(C)C)C(C)C)C(C)C)[C@H](C)O)C(C)C)C(C)C)C(=O)N[C@@H](Cc1c[nH]c2ccccc12)C(=O)NCCO [compound 5542] (For-VGA[dV]A[dV]V[dT]W[dV]W[dV]W[dL]W-NHCH2CH2OH) | - | 1.17 | 100% |
| CC(C)C[C@@H](NC(=O)[C@H](C)NC(=O)[C@H](NC(=O)[C@H](C)NC(=O)CNC(=O)[C@@H](NC=O)C(C)C)[C@H](C)O)C(=O)N[C@H](C(=O)N[C@H](CC(C)C)C(=O)N[C@@H](Cc1c[nH]c2ccccc12)C(=O)N[C@@H](C(=O)N[C@@H](Cc1c[nH]c2ccccc12)C(=O)N[C@@H](C(=O)N[C@@H](Cc1c[nH]c2ccccc12)C(=O)N[C@H](CC(C)C)C(=O)N[C@@H](Cc1c[nH]c2ccccc12)C(=O)NCCO)C(C)C)[C@H](C)O)C(C)C [compound 5532] (For-VGA[dT]A[dL]V[dL]W[dT]W[dV]W[dL]W-NHCH2CH2OH) | - | 1.06 | 100% |
| CC(C)C[C@@H](NC(=O)[C@H](C)NC(=O)[C@H](NC(=O)[C@H](C)NC(=O)CNC(=O)[C@@H](NC=O)C(C)C)C(C)C)C(=O)N[C@H](C(=O)N[C@@H](C(=O)N[C@@H](Cc1c[nH]c2ccccc12)C(=O)N[C@H](CC(C)C)C(=O)N[C@@H](Cc1c[nH]c2ccccc12)C(=O)N[C@@H](C(=O)N[C@@H](Cc1c[nH]c2ccccc12)C(=O)N[C@H](CC(C)C)C(=O)N[C@@H](Cc1c[nH]c2ccccc12)C(=O)NCCO)C(C)C)[C@H](C)O)C(C)C [compound 6842] (For-VGA[dV]A[dL]V[dT]W[dL]W[dV]W[dL]W-NHCH2CH2OH) | - | 1.14 | 100% |
| CC(C)C[C@@H](NC(=O)[C@H](C)NC(=O)CNC(=O)[C@@H](NC=O)C(C)C)C(=O)N[C@@H](C)C(=O)N[C@@H](C(=O)N[C@H](C(=O)N[C@@H](C(=O)N[C@@H](Cc1c[nH]c2ccccc12)C(=O)N[C@H](CC(C)C)C(=O)N[C@@H](Cc1c[nH]c2ccccc12)C(=O)N[C@H](CC(C)C)C(=O)N[C@@H](Cc1c[nH]c2ccccc12)C(=O)N[C@@H](C(=O)N[C@@H](Cc1c[nH]c2ccccc12)C(=O)NCCO)C(C)C)[C@H](C)O)C(C)C)C(C)C [compound 200] (For-VGA[dL]A[dV]V[dT]W[dL]W[dL]W[dV]W-NHCH2CH2OH) | + | 1.04 | 100% |
